The values below come from patent publication US11261174B2, “Pyrazole O-linked carbamoyl cyclohexyl acids as LPA antagonists” (BRISTOL-MYERS SQUIBB COMPANY, priority 2017, dated 2022).

LPA1, sequence (Q92633 whole entry): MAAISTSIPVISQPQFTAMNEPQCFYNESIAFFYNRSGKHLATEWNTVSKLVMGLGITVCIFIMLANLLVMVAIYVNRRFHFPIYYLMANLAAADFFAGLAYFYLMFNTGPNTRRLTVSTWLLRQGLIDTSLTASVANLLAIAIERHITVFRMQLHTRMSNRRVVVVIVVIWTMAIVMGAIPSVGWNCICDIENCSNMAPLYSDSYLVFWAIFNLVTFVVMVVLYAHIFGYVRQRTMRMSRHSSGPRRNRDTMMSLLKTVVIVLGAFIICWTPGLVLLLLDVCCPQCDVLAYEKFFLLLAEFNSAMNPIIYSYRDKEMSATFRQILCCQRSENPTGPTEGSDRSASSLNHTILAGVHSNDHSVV

The assay has as its target LPA1 (Homo sapiens, UniProt Q92633). Kind of assay: LPA1 functional antagonist assay (LPA-induced calcium flux). Format: cell-based. Also noted: expressed in transfected cells; host or cells: Chinese hamster ovary (CHO) cells. The conditions noted are these: CHO cells overexpressing human LPA1; calcium flux induced by 10 nM LPA; read-out: hLPA1 IC50. Here is the method: The effectiveness of compounds of the present invention as LPA1 inhibitors can be determined in an LPA1 functional antagonist assay as follows:
Chinese hamster ovary cells overexpressing human LPA1 were plated overnight (15,000 cells/well) in poly-D-lysine coated 384-well microplates (Greiner bio-one, Cat #781946) in DMEM/F12 medium (Gibco, Cat #11039). Following overnight culture, cells were loaded with calcium indicator dye (AAT Bioquest Inc, Cat #34601) for 30 minutes at 37° C. The cells were then equilibrated to room temperature for 30 minutes before the assay. Test compounds solubilized in DMSO were transferred to 384 well non-binding surface plates (Corning, Cat #3575) using the Labcyte Echo acoustic dispense and diluted with assay buffer [1×HBSS with calcium/magnesium (Gibco Cat #14025-092), 20 mM HEPES (Gibco Cat #15630-080) and 0.1% fatty acid free BSA (Sigma Cat # A9205)] to a final concentration of 0.5% DMSO. Diluted compounds were added to the cells by FDSS6000 (Hamamatsu) at final concentrations ranging from 0.08 nM to 5 μM. and were then incubated for 20 min at room temperature at which time LPA (Avanti Polar Lipids Cat #857130C) was added at final concentrations of 10 nM to stimulate the cells. […] IC50 values were determined by fitting data to a 4-parameter logistic equation (GraphPad Prism, San Diego Calif.).
A general note: A change in cytosolic calcium serves as a functional read-out for many receptors and channels.
The IC50 is the concentration that inhibits the measured activity by half. Take `Cc1nc(-c2cnn(C)c2COC(=O)N(C)Cc2ccccc2)ccc1O[C@@H]1CCC[C@@H](C(=O)O)C1` (racemic) [Example 27]: the IC50 amounted to 24 nM.
Then `Cc1nc(-c2cnn(C)c2COC(=O)N(C)CC2CCCC2)ccc1O[C@H]1CCC[C@H](C(=O)O)C1` [Example 13], with 244 nM.
The value for `CN(CC1CC1)C(=O)OCc1c(-c2ccc(O[C@@H]3CCC[C@@H](C(=O)O)C3)cc2)cnn1C` (racemic) [Example 41] was 1760 nM; that for `CCc1nc(-c2cnn(C)c2COC(=O)N(C)CC2CCC2)ncc1O[C@H]1CCC[C@H](C(=O)O)C1` [Example 84] was 13 nM.
On to `Cc1cc(-c2cnn(C)c2COC(=O)N(C)C(C)C2CC2)ccc1O[C@H]1CCC[C@H](C(=O)O)C1` (stereo partly shown) [Example 47], for which the half-maximal inhibitory concentration (IC50) stood at 27 nM.
The value for `Cc1nc(-c2cnn(C)c2COC(=O)N(C)Cc2cccc(Cl)c2)ccc1O[C@H]1CCC[C@H](C(=O)O)C1` [Example 14] was 1120 nM.
Turning to `CN(Cc1ccccc1)C(=O)OCc1c(-c2ccc(O[C@@H]3CCC[C@@H](C(=O)O)C3)cc2)cnn1C` [Example 36], the IC50 is 376 nM.
Take `CCCN(C)C(=O)OCc1c(-c2ncc(O[C@H]3CCC[C@H](C(=O)O)C3)c(CC)n2)cnn1C` [Example 88]: the IC50 came out at 1260 nM.
The value for `Cc1nc(-c2cnn(C)c2COC(=O)N(C)C2CCCC2)cnc1O[C@H]1CCC[C@H](C(=O)O)C1` [Example 9] was 34 nM.
In the case of `Cc1nc(-c2cnn(C)c2COC(=O)N(C)Cc2ccccc2)ccc1O[C@H]1CCC[C@H](C(=O)O)C1` [Example 15], the IC50 was determined as 10 nM.
The value for `Cc1nc(-c2cnn(C)c2COC(=O)N(C)C(C2CC2)C2CC2)ccc1O[C@H]1CCC[C@H](C(=O)O)C1` [Example 23] was 28 nM.
`Cc1nc(-c2cnn(C)c2COC(=O)N(C)[C@H](C)C2CC2)cnc1O[C@H]1CCC[C@H](C(=O)O)C1` [Example 6]: the half-inhibitory concentration (IC50) amounted to 94 nM.
Then `Cc1nc(-c2cnn(C)c2COC(=O)N(C)CCC2CC2(F)F)ncc1O[C@H]1CCC[C@H](C(=O)O)C1` (stereo partly shown) [Example 78], with 317 nM; and `Cc1nc(-c2cnn(C)c2COC(=O)NC2CCCCC2)ncc1O[C@H]1CCC[C@H](C(=O)O)C1` [Example 81], with 856 nM.
The value for `CN(CCC1CC1)C(=O)OCc1c(-c2ccc(O[C@@H]3CCC[C@@H](C(=O)O)C3)cn2)cnn1C` (racemic) [Example 32] was 54 nM.
The value for `CCC(C)N(C)C(=O)OCc1c(-c2ccc(O[C@H]3CCC[C@H](C(=O)O)C3)cc2)cnn1C` (stereo partly shown) [Example 53] was 86 nM; that for `CC(C)CCN(C)C(=O)OCc1c(-c2ccc(O[C@H]3CCC[C@H](C(=O)O)C3)cc2)cnn1C` [Example 38] was 6 nM.
Regarding `CCc1nc(-c2cnn(C)c2COC(=O)N(C)C2CCC2)ncc1O[C@H]1CCC[C@H](C(=O)O)C1` [Example 86], the IC50 was 217 nM.
For `Cc1nc(-c2cnn(C)c2COC(=O)N(C)CC2CC2)ccc1O[C@H]1CCC[C@H](C(=O)O)C1` [Example 25], the half-inhibitory concentration (IC50) amounted to 20 nM.
For the compound `CCCCCN(C)C(=O)OCc1c(-c2ncc(O[C@H]3CCC[C@H](C(=O)O)C3)c(C)n2)cnn1C` [Example 75], the IC50 was 82 nM.
The value for `C[C@@H](C1CC1)N(C)C(=O)OCc1c(-c2ccc(O[C@H]3CCC[C@H](C(=O)O)C3)cc2)cnn1C` [Example 57] was 192 nM.
Then `CCCC1(N(C)C(=O)OCc2c(-c3ccc(O[C@H]4CCC[C@H](C(=O)O)C4)c(C)n3)cnn2C)CC1` [Example 18], with 55 nM; and `CCCC(C)N(C)C(=O)OCc1c(-c2ccc(O[C@H]3CCC[C@H](C(=O)O)C3)cc2)cnn1C` (stereo partly shown) [Example 54], with 87 nM; and `CC(C1CC1)N(C)C(=O)OCc1c(-c2ccc(O[C@H]3CCC[C@H](C(=O)O)C3)cc2)cnn1C` (stereo partly shown) [Example 89], with 23 nM.
Then `Cc1nc(-c2cnn(C)c2COC(=O)N(C)CC23CC(F)(C2)C3)ncc1O[C@H]1CCC[C@H](C(=O)O)C1` [Example 76], with 346 nM; and `CN(C(=O)OCc1c(-c2ccc(O[C@@H]3CCC[C@@H](C(=O)O)C3)cc2)cnn1C)C1CCC1` [Example 42], with 415 nM.
`CC(C)CN(C)C(=O)OCc1c(-c2ccc(O[C@H]3CCC[C@H](C(=O)O)C3)cc2)cnn1C` [Example 49]: the IC50 came out at 286 nM.
Then `Cc1nc(-c2cnn(C)c2COC(=O)N(C)C[C@H]2C[C@@H]2C)ncc1O[C@H]1CCC[C@H](C(=O)O)C1` [Example 92], with 45 nM; and `C[C@H](C1CC1)N(C)C(=O)OCc1c(-c2ccc(O[C@H]3CCC[C@H](C(=O)O)C3)cn2)cnn1C` [Example 1, (1S,3S)-3-((6-(5-(((((R)-1-cyclopropylethyl)(methyl)carbamoyl)oxy)methyl)-1-methyl-1H-pyrazol-4-yl)pyridin-3-yl)oxy)cyclohexane-1-carboxylic Acid], with 67 nM.
`CCCCN(C)C(=O)OCc1c(-c2ccc(O[C@H]3CCC[C@H](C(=O)O)C3)cn2)cnn1C` [Example 35]: the IC50 stood at 9 nM.
The value for `CN(CC1CC1)C(=O)OCc1c(-c2ccc(O[C@H]3CCC[C@H](C(=O)O)C3)cc2)cnn1C` [Example 51] was 399 nM; that for `Cc1nc(-c2cnn(C)c2COC(=O)N(C)Cc2ccccc2)ncc1O[C@H]1CCC[C@H](C(=O)O)C1` [Example 72] was 60 nM; that for `CCCCN(C)C(=O)OCc1c(-c2ncc(O[C@H]3CCC[C@H](C(=O)O)C3)c(C)n2)cnn1C` [Example 67] was 59 nM.
Take `CCCN(C)C(=O)OCc1c(-c2ncc(O[C@H]3CCC[C@H](C(=O)O)C3)c(C)n2)cnn1C` [Example 66, (1S,3S)-3-((4-Methyl-2-(1-methyl-5-(((methyl(propyl)carbamoyl)oxy)methyl)-1H-pyrazol-4-yl)pyrimidin-5-yl)oxy)cyclohexane-1-carboxylic Acid]: the IC50 is 214 nM.
The value for `CN(CC1CC1)C(=O)OCc1c(-c2ccc(O[C@H]3CCC[C@H](C(=O)O)C3)cn2)cnn1C` [Example 4] was 165 nM.
Then `CC(C)CCN(C)C(=O)OCc1c(-c2ccc(O[C@@H]3CCC[C@@H](C(=O)O)C3)cc2)cnn1C` [Example 37], with 2040 nM; and `Cc1nc(-c2cnn(C)c2COC(=O)N(C)CCCCF)ncc1O[C@H]1CCC[C@H](C(=O)O)C1` [Example 74], with 77 nM.
Then `CCC(C)N(C)C(=O)OCc1c(-c2ccc(O[C@H]3CCC[C@H](C(=O)O)C3)cn2)cnn1C` (stereo partly shown) [Example 59], with 401 nM; and `CC[C@H](C)CN(C)C(=O)OCc1c(-c2ccc(O[C@H]3CCC[C@H](C(=O)O)C3)c(C)n2)cnn1C` [Example 11], with 73 nM.
In the case of `CC(C)CCN(C)C(=O)OCc1c(-c2ccc(O[C@H]3CCC[C@H](C(=O)O)C3)cn2)cnn1C` [Example 33], the IC50 was 23 nM.
As to `CCCCN(C)C(=O)OCc1c(-c2ccc(O[C@H]3CCC[C@H](C(=O)O)C3)c(C)c2)cnn1C` [Example 30], the IC50 was 5 nM.
The value for `Cc1cc(-c2cnn(C)c2COC(=O)N(C)C(C)C2CCC2)ccc1O[C@H]1CCC[C@H](C(=O)O)C1` (stereo partly shown) [Example 46] was 27 nM; that for `CN(C(=O)OCc1c(-c2ccc(O[C@H]3CCC[C@H](C(=O)O)C3)cc2)cnn1C)C1CCC1` [Example 50] was 70 nM.
The value for `CCCN(C)C(=O)OCc1c(-c2ccc(O[C@H]3CCC[C@H](C(=O)O)C3)c(C)n2)cnn1C` [Example 12] was 54 nM; that for `Cc1nc(-c2cnn(C)c2COC(=O)N(C)CCC2CC2)ccc1O[C@H]1CCC[C@H](C(=O)O)C1` [Example 19] was 9 nM.
Then `Cc1nc(-c2cnn(C)c2COC(=O)N(C)[C@H](C)C2CC2)ccc1O[C@H]1CCC[C@H](C(=O)O)C1` [Example 65], with 48 nM; and `CC(C1CCC1)N(C)C(=O)OCc1c(-c2ccc(O[C@H]3CCC[C@H](C(=O)O)C3)cc2)cnn1C` (stereo partly shown) [Example 55], with 22 nM; and `Cc1nc(-c2cnn(C)c2COC(=O)N2CC(C)(C)C2)ccc1O[C@H]1CCC[C@H](C(=O)O)C1` [Example 90], with 309 nM.
Turning to `CCCCN(C)C(=O)OCc1c(-c2ccc(O[C@H]3CCC[C@H](C(=O)O)C3)c(C)n2)cnn1C` [Example 20], the IC50 was found to be 16 nM.
Consider `CC(C1CCC1)N(C)C(=O)OCc1c(-c2ccc(O[C@H]3CCCC(C(=O)O)C3)cn2)cnn1C` (stereo partly shown) [Example 2], for which the half-inhibitory concentration (IC50) is 136 nM.
With `CCCCN(C)C(=O)OCc1c(-c2ncc(O[C@H]3CCC[C@H](C(=O)O)C3)c(CC)n2)cnn1C` [Example 87], the IC50 came out at 33 nM.
The value for `CCc1nc(-c2cnn(C)c2COC(=O)N(C)C2CCCC2)ncc1O[C@H]1CCC[C@H](C(=O)O)C1` [Example 83] was 60 nM; that for `Cc1nc(-c2cnn(C)c2COC(=O)N(C)C2CCCCC2)ncc1O[C@H]1CCC[C@H](C(=O)O)C1` [Example 79] was 93 nM.
With `Cc1nc(-c2cnn(C)c2COC(=O)N(C)C2CCCC2)ccc1O[C@H]1CCC[C@H](C(=O)O)C1` [Example 5], the concentration for half-maximal inhibition (IC50) was found to be 30 nM.
With `CCCC(C)(C)N(C)C(=O)OCc1c(-c2ccc(O[C@@H]3CCC[C@@H](C(=O)O)C3)cn2)cnn1C` (racemic) [Example 31], the IC50 worked out at 51 nM.
